Measurements as given in patent publication US12662491B2 (Redona Therapeutics, Inc., priority 2020, dated 2026).
Like-named read-outs stand apart in the source and are kept apart here.

Target: T1, Zcchc11 enzyme (Homo sapiens, UniProt Q5TAX3)
T1 construct: made in house; host or cells: HEK293 cells (Zcchc11); E. coli Rosetta II (LIN28A)
T1 sequence (Q5TAX3 212-1420): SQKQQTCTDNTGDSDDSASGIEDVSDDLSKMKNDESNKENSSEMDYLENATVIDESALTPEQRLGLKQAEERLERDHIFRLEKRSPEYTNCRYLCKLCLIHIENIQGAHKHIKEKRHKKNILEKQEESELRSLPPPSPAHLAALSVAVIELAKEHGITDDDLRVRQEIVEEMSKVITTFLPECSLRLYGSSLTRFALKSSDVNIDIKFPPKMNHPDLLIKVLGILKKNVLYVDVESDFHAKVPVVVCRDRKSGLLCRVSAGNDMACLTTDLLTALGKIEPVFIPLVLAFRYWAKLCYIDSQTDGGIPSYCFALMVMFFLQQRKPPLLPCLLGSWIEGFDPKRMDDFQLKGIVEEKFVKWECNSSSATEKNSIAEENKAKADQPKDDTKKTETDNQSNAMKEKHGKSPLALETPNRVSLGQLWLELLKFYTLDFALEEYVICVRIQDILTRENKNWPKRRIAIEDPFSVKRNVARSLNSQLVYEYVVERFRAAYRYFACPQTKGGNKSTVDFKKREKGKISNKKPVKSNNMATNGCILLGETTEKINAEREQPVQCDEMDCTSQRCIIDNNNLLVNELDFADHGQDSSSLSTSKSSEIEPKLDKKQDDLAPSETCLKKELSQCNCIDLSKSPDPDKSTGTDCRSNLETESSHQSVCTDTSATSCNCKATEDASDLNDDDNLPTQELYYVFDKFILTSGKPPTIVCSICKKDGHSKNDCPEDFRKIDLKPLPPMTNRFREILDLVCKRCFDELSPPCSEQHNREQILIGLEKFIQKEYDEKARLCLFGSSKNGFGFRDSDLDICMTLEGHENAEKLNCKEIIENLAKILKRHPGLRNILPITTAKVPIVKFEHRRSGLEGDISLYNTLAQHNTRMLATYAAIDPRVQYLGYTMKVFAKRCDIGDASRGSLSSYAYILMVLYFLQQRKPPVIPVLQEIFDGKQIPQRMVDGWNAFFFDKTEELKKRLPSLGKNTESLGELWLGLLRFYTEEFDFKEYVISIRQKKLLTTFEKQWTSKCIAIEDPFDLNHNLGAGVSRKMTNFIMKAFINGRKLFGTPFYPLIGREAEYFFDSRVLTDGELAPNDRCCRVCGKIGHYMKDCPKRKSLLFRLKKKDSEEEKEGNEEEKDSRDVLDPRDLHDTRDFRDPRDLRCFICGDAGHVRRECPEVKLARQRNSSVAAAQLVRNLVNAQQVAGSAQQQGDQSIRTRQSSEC
Assay: TUTase assay (Zcchc11 assay, Lin28a-dependent polyuridylation of pre-let-7)
Assay type: biochemical
Details: read-out: Potency Lin28a-dep Z11 IC50
Outline: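 Human Zcchc11 residues 212-1420 (HEK293-expressed, MBP tag cleaved, C-terminal FLAG) at 0.2 nM, with 10 nM full-length human LIN28A and 2 nM 5′-fluorescein pre-let-7, preincubated with compound 30 min at room temperature. Reaction started with 5 uM UTP plus 4 nM 3′-rhodamine A20 quench probe; fluorescein loss read kinetically, IC50 from initial rates.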

[1] = Lin28a-dependent Zcchc11 (Z11) TUTase activity
[2] = Lin28a-dependent Zcchc11 (Z11) TUTase assay
[3] = LIN28A 10 nM, Zcchc11 0.2 nM, 5′-fluorescein pre-let-7 miRNA 2 nM, UTP 5 uM, room temperature, 30 minutes pre-incubation

IC50 [2] [nM] | Structure (SMILES) | other results
≤ 1000 | COc1ccc(Cl)c(OC[C@H]2C[C@H]3C[C@H]3N2c2cc3c(cc2Cl)c(=O)c(C(=O)O)cn3-c2ccc(N3CC(N(C)C)C3)nc2)n1 [Example 660, 6-chloro-7-((1R,3R,5R)-3-(((3-chloro-6-methoxypyridin-2-yl)oxy)methyl)-2-azabicyclo[3.1.0]hexan-2-yl)-1-(6-(3-(dimethylamino)azetidin-1-yl)pyridin-3-yl)-4-oxo-1,4-dihydroquinoline-3-carboxylic acid] | –
≤ 1000 | [N-]=[N+]=Nc1ccc(-n2cc(C(=O)O)c(=O)c3cc(Cl)c(N4CCC[C@@H]4COc4ncccc4Cl)cc32)cn1 [Example 631, (R)-1-(6-azidopyridin-3-yl)-6-chloro-7-(2-(((3-chloropyridin-2-yl)oxy)methyl)pyrrolidin-1-yl)-4-oxo-1,4-dihydroquinoline-3-carboxylic acid] | –
≤ 1000 | COc1ccc(Cl)c(OC[C@H]2CCCN2c2cc3c(cc2F)c(=O)c(C(=O)O)cn3-c2cnnc(N)c2)n1 [Example 646, (R)-1-(6-aminopyridazin-4-yl)-7-(2-(((3-chloro-6-methoxypyridin-2-yl)oxy)methyl)pyrrolidin-1-yl)-6-fluoro-4-oxo-1,4-dihydroquinoline-3-carboxylic acid] | –
≤ 1000 | COc1ccc(Cl)c(OC[C@H]2CC3CC3N2c2cc3c(cc2Cl)c(=O)c(C(=O)O)cn3-c2ccc(N3CC(N(C)C)C3)nc2)n1 (stereo partly drawn) [Example 654, 6-chloro-7-((3R)-3-(((3-chloro-6-methoxypyridin-2-yl)oxy)methyl)-2-azabicyclo[3.1.0]hexan-2-yl)-1-(6-(3-(dimethylamino)azetidin-1-yl)pyridin-3-yl)-4-oxo-1,4-dihydroquinoline-3-carboxylic acid] | –
≤ 1000 | CN(C)C1CN(c2ccc(-n3cc(C(=O)O)c(=O)c4cc(F)c(N5CC[C@@H](F)[C@@H]5COc5ncccc5Cl)cc43)cn2)C1 [Example 671, 7-((2S,3R)-2-(((3-chloropyridin-2-yl)oxy)methyl)-3-fluoropyrrolidin-1-yl)-1-(6-(3-(dimethylamino)azetidin-1-yl)pyridin-3-yl)-6-fluoro-4-oxo-1,4-dihydroquinoline-3-carboxylic acid] | –
≤ 1000 | CO[C@H]1CCN(c2cc3c(cc2Cl)c(=O)c(C(=O)O)cn3-c2ccc(N3CC(N(C)C)C3)nc2)[C@H]1COc1ncccc1Cl [Example 669, 6-chloro-7-((2S,3S)-2-(((3-chloropyridin-2-yl)oxy)methyl)-3-methoxypyrrolidin-1-yl)-1-(6-(3-(dimethylamino)azetidin-1-yl)pyridin-3-yl)-4-oxo-1,4-dihydroquinoline-3-carboxylic acid] | –

Further lines, the compound ahead of its results:

Structure (SMILES) | IC50 [2] [nM] | other results
CN(C)C1CN(c2ccc(-n3cc(C(=O)O)c(=O)c4cc(Cl)c(N5CCC[C@]5(C)COc5ncccc5Cl)cc43)cn2)C1 [Compound 277, (R)-6-chloro-7-(2-(((3-chloropyridin-2-yl)oxy)methyl)-2-methyl-pyrrolidin-1-yl)-1-(6-(3-(dimethyl-amino)azetidin-1-yl)pyridin-3-yl)-4-oxo-1,4-dihydro-quinoline-3-carboxylic acid formic acid] | – | IC50 [1]: ≤ 1000 nM
COc1ccc(Cl)c(OCC23CC(CN2c2cc4c(cc2Cl)c(=O)c(C(=O)O)cn4-c2ccnc(N)c2)C3)n1 [Compound 177, 1-(2-aminopyridin-4-yl)-6-chloro-7-(1-[[(3-chloro-6-methoxy-pyridin-2-yl)oxy]methyl]-2-azabicyclo [2.1.1]hexan-2-yl)-4-oxoquinoline-3-carboxylic acid] | – | IC50 [1]: 1000 to 10000 nM
CS(=O)(=O)Nc1ccc(-n2cc(C(=O)O)c(=O)c3cc(Cl)c(N4CCC[C@@H]4COc4ncccc4Cl)cc32)cn1 [Example 26, 6-chloro-7-[(2R)-2-{[(3-chloropyridin-2-yl)oxy]methyl}pyrrolidin-1-yl]-1-(6-methanesulfonamidopyridin-3-yl)-4-oxo-1,4-dihydroquinoline-3-carboxylic acid] | – | IC50 [3]: ≤ 1000 nM
CN(C)c1ccc(Cl)c(OC[C@H]2CCCN2c2cc3c(cc2Cl)c(=O)c(C(=O)O)cn3-c2ccc(N3CC(N(C)C)C3)nc2)n1 [Compound 350, (R)-6-chloro-7-(2-(((3-chloro-6-(dimethyl-amino)pyridin-2-yl)oxy)methyl)pyrrolidin-1-yl)-1-(6-(3-(dimethyl-amino)azetidin-1-yl)pyridin-3-yl)-4-oxo-1,4-dihydro-quinoline-3-carboxylic acid] | – | IC50 [1]: ≤ 1000 nM
O=C(O)c1cn(-c2ccc3[nH]c(=O)[nH]c3c2)c2cc(N3CCC[C@@H]3COc3ccccn3)c(F)cc2c1=O [Example 441, (R)-6-fluoro-4-oxo-1-(2-oxo-2,3-dihydro-1H-benzo[d]imidazol-5-yl)-7-(2-((pyridin-2-yloxy)methyl)pyrrolidin-1-yl)-1,4-dihydroquinoline-3-carboxylic acid] | ≤ 1000 | –
COc1ccc(Cl)c(OCC2C3CC(C3)N2c2cc3c(cc2Cl)c(=O)c(C(=O)O)cn3-c2ccc(N3CC(N(C)C)C3)nc2)n1 (stereo not drawn) [Example 64, 6-chloro-7-(3-(((3-chloro-6-methoxypyridin-2-yl)oxy)methyl)-2-azabicyclo[2.1.1]hexan-2-yl)-1-(6-(3-(dimethylamino)azetidin-1-yl)pyridin-3-yl)-4-oxo-1,4-dihydroquinoline-3-carboxylic acid] | – | IC50 [3]: ≤ 1000 nM
O=C(O)c1cn(-c2ccc(F)c(F)c2)c2cc(N3CCC[C@@H]3COc3ccccn3)c(F)cc2c1=O [Example 379, (R)-1-(3,4-difluorophenyl)-6-fluoro-4-oxo-7-(2-((pyridin-2-yloxy)methyl)pyrrolidin-1-yl)-1,4-dihydroquinoline-3-carboxylic acid] | 1000 to 10000 | –
Cc1cccnc1OC[C@H]1CCCN1c1c(F)cc2c(=O)c(C(=O)O)cn(-c3ccc(O)cc3)c2c1F [Compound 132, (R)-6,8-difluoro-1-(4-hydroxy-phenyl)-7-(2-(((3-methylpyridin-2-yl)oxy)methyl)pyrrolidin-1-yl)-4-oxo-1,4-dihydro-quinoline-3-carboxylic acid] | – | IC50 [1]: ≤ 1000 nM
Cc1c(F)c(N2CCC[C@@H]2COc2ccccn2)cc2c1c(=O)c(C(=O)O)cn2C1CC1 [Example 1, (R)-1-cyclopropyl-6-fluoro-5-methyl-4-oxo-7-(2-((pyridin-2-yloxy)methyl)pyrrolidin-1-yl)-1,4-dihydroquinoline-3-carboxylic acid] | – | IC50 [3]: > 50000 nM
O=C(O)c1cn(-c2ccc(N3CCC3)nc2)c2cc(N3CCC[C@H]3COc3ncccc3Cl)c(Cl)cc2c1=O [Example 516, (S)-1-(6-(azetidin-1-yl)pyridin-3-yl)-6-chloro-7-(2-(((3-chloropyridin-2-yl)oxy)methyl)pyrrolidin-1-yl)-4-oxo-1,4-dihydroquinoline-3-carboxylic acid] | ≤ 1000 | –
O=C(O)c1cn(-c2cnn(C3CN(CCF)C3)c2)c2cc(N3CCC[C@@H]3COc3ncccc3Cl)c(Cl)cc2c1=O [Compound 244, 6-chloro-7-[(2R)-2-[[(3-chloropyridin-2-yl)oxy]methyl]pyrrolidin-1-yl]-1-[1-[1-(2-fluoroethyl)azetidin-3-yl]pyrazol-4-yl]-4-oxoquinoline-3-carboxylic acid] | – | IC50 [1]: ≤ 1000 nM
O=C(O)c1cn(-c2cnccn2)c2cc(N3CCC[C@@H]3COc3ncccc3Cl)c(Br)cc2c1=O [Example 511, (R)-6-bromo-7-(2-(((3-chloropyridin-2-yl)oxy)methyl)pyrrolidin-1-yl)-4-oxo-1-(pyrazin-2-yl)-1,4-dihydroquinoline-3-carboxylic acid] | ≤ 1000 | –
